# Experimental data: patent US4552879A, “Benzoheterocyclic compounds and pharmaceutical composition thereof” (Otsuka Pharmaceutical Co., Ltd., priority 1980, dated 1985)
# Where two headings read alike, the source gives them in different places.
# Columns and labels:
# Test in all cases: Minimum inhibitory concentration, serial dilution method on agar plate
# Format in all cases: cell-based
# [1] = tested on: Proteus rettgeri NIH 96; conditions: Providencia rettgeri
# [2] = tested on: Shigella sonnei EW 33
# Procedure: The antimicrobial activity of the following test compounds on various test organisms listed below was determined by the serial dilution method on agar plate (Heart Infusion agar produced by Difco Co.) (see CHEMOTHERAPY 22, pp. 1126-1128 (1974)), and the minimum inhibitory concentrations (mcg/ml) obtained are shown in Tables 1, 2 and 3 below.
# A sample of each test organism was prepared so that the population of the organism was 1×10^8 cells/ml (O.D. 660 mμ=0.07 to 0.16) and 1×10^6 cells/ml (which was obtained by diluting 100 fold the above 1×10^8 cells/ml preparation).
# [3] = tested on: Escherichia Coli NIHJ JC-2 (IFO 12734); conditions: read-out: Minimum Inhibitory Concentration
# [4] = tested on: Staphylococcus aureus B-70
# [5] = tested on: Staphylococcus aureus FDA 209 P; conditions: Staphylococcus aureus, read-out: Minimum Inhibitory Concentration
# [6] = tested on: Staphylococcus aureus 90124
# [7] = tested on: Micrococcus lysodeikticus IAM 1313; conditions: Micrococcus luteus
# [8] = tested on: Pseudomonas aeruginosa E-2; conditions: Pseudomonas aeruginosa, read-out: Minimum Inhibitory Concentration
# [9] = tested on: Staphylococcus aureus B-5
# [10] = tested on: Bacteroides thetaiotaomicron WAL 2926
# [11] = tested on: Staphylococcus aureus E-46
# [12] = tested on: Bacillus subtilis PCI 219
# [13] = tested on: Serratia marcescens IFO 12648; conditions: read-out: Minimum Inhibitory Concentration
# [14] = tested on: Pseudomonas putida 12996; conditions: read-out: Minimum Inhibitory Concentration
# [15] = tested on: Staphylococcus epidermidis IFO 3762
# [16] = tested on: Staphylococcus aureus 7447
# [17] = tested on: Bacillus cereus ATCC 11778
# [18] = tested on: Corynebacterium diphteriae
# [19] = tested on: Staphylococcus aureus No. 80
# [20] = tested on: Bacillus circuluns ATCC 8241
# [21] = tested on: Sarcina lutea PCI 1001
# [22] = tested on: Klebsiella pneumoniae; conditions: read-out: Minimum Inhibitory Concentration
# [23] = tested on: Staphylococcus aureus IFO 3060
# [24] = tested on: Salmonella typhi 0-901 (NCTC 8393); conditions: Salmonella enterica
# [25] = tested on: Streptococcus pyogenes IID S-23; conditions: Streptococcus pyogenes, read-out: Minimum Inhibitory Concentration
# [26] = tested on: Bacillus cereus IFO 3446
# [27] = tested on: Micrococcus luteus ATCC 4698
# [28] = tested on: Bacillus cereus IFO 3001
# [29] = tested on: Staphylococcus epidermidis ATCC 12228
# [30] = tested on: Pseudomonas aeruginosa ATCC 10145; conditions: Pseudomonas aeruginosa, read-out: Minimum Inhibitory Concentration
# [31] = tested on: Bacillus pumilus IFO 3813
compound,measurement,setting,value
"CC1CCc2c(N3CCC(O)CC3)c(F)cc3c(=O)c(C(=O)O)cn1c23 (centres unmarked) [Compound 1, 9-Fluoro-8-(4-hydroxy-1-piperidyl)-5-methyl-6,7-dihydro-1-oxo-1H,5H-benzo[ij]quinolizine-2-carboxylic acid]",MIC,"[1]; NIH96, read-out: Minimum Inhibitory Concentration, 1×10^6 cells/ml",0.1 µg/mL
same,MIC,"[1]; NIH96, read-out: Minimum Inhibitory Concentration, 1×10^8 cells/ml",0.2 µg/mL
same,MIC,"[2]; EW33, 1×10^6 cells/ml",0.2 µg/mL
same,MIC,"[2]; EW33, 1×10^8 cells/ml",0.2 µg/mL
same,MIC,[3]; 1×10^6 cells/ml,0.39 µg/mL
same,MIC,[3]; 1×10^8 cells/ml,0.39 µg/mL
same,MIC,"[4]; B70, 1×10^6 cells/ml",0.024 µg/mL
same,MIC,"[4]; B70, 1×10^8 cells/ml",0.05 µg/mL
same,MIC,"[5]; FDA209, 1×10^6 cells/ml",≤ 0.025 µg/mL
same,MIC,"[5]; FDA209, 1×10^8 cells/ml",≤ 0.05 µg/mL
same,Minimum Inhibitory Concentration,[6]; 1×10^6 cells/ml,0.10 µg/mL
same,MIC,"[6]; Staphylococcus aureus, 90124, 1×10^8 cells/ml",0.1 µg/mL
same,MIC,"[7]; IAM1313, 1×10^6 cells/ml",0.1 µg/mL
same,MIC,"[7]; IAM1313, 1×10^8 cells/ml",0.2 µg/mL
same,MIC,"[8]; E2, 1×10^6 cells/ml",6.25 µg/mL
same,MIC,"[8]; E2, 1×10^8 cells/ml",6.25 µg/mL
same,Minimum Inhibitory Concentration,[9]; 1×10^6 cells/ml,0.024 µg/mL
same,MIC,"[9]; Staphylococcus aureus, B5, 1×10^8 cells/ml",0.024 µg/mL
same,MIC,"[10]; WAL2926, 1×10^6 cells/ml",1.56 µg/mL
same,MIC,"[10]; WAL2926, 1×10^8 cells/ml",6.25 µg/mL
same,Minimum Inhibitory Concentration,[11]; 1×10^6 cells/ml,0.05 µg/mL
same,MIC,"[11]; Staphylococcus aureus, E46, 1×10^8 cells/ml",0.05 µg/mL
same,Minimum Inhibitory Concentration,[12]; 1×10^6 cells/ml,0.024 µg/mL
same,MIC,"[12]; Bacillus subtilis, PCI219, 1×10^8 cells/ml",0.024 µg/mL
same,MIC,"[13]; IFO12648, 1×10^6 cells/ml",0.78 µg/mL
same,MIC,"[13]; IFO12648, 1×10^8 cells/ml",1.56 µg/mL
same,MIC,"[14]; Pseudomonas putida, 12996, 1×10^6 cells/ml",6.25 µg/mL
same,MIC,"[14]; Pseudomonas putida, 12996, 1×10^8 cells/ml",6.25 µg/mL
same,MIC,"[15]; IFO3762, 1×10^6 cells/ml",0.2 µg/mL
same,MIC,"[15]; IFO3762, 1×10^8 cells/ml",0.39 µg/mL
same,Minimum Inhibitory Concentration,[16]; 1×10^6 cells/ml,0.05 µg/mL
same,MIC,"[16]; Staphylococcus aureus, 7447, 1×10^8 cells/ml",0.05 µg/mL
same,Minimum Inhibitory Concentration,[17]; 1×10^6 cells/ml,0.10 µg/mL
same,MIC,"[17]; Bacillus cereus, ATCC11778, 1×10^8 cells/ml",0.1 µg/mL
same,Minimum Inhibitory Concentration,[18]; 1×10^6 cells/ml,0.05 µg/mL
same,MIC,"[18]; Corynebacterium, 1×10^8 cells/ml",0.05 µg/mL
same,MIC,"[19]; NO.80, 1×10^6 cells/ml",0.024 µg/mL
same,MIC,"[19]; NO.80, 1×10^8 cells/ml",0.05 µg/mL
same,Minimum Inhibitory Concentration,[20]; 1×10^6 cells/ml,0.024 µg/mL
same,MIC,"[20]; Bacillus, ATCC8241, 1×10^8 cells/ml",0.024 µg/mL
same,Minimum Inhibitory Concentration,[21]; 1×10^6 cells/ml,0.39 µg/mL
same,MIC,"[21]; Micrococcus luteus, PCI1001, 1×10^8 cells/ml",0.39 µg/mL
same,MIC,[22]; 1×10^6 cells/ml,0.39 µg/mL
same,MIC,[22]; 1×10^8 cells/ml,0.39 µg/mL
same,MIC,"[23]; IFO3060, 1×10^6 cells/ml",0.05 µg/mL
same,MIC,"[23]; IFO3060, 1×10^8 cells/ml",0.1 µg/mL
same,MIC,"[24]; read-out: Minimum Inhibitory Concentration, 1×10^6 cells/ml",0.05 µg/mL
same,MIC,"[24]; read-out: Minimum Inhibitory Concentration, 1×10^8 cells/ml",0.1 µg/mL
same,MIC,"[25]; IIDS23, 1×10^6 cells/ml",0.39 µg/mL
same,MIC,"[25]; IIDS23, 1×10^8 cells/ml",0.78 µg/mL
same,Minimum Inhibitory Concentration,[26]; 1×10^6 cells/ml,0.10 µg/mL
same,MIC,"[26]; Bacillus cereus, IFO3446, 1×10^8 cells/ml",0.1 µg/mL
same,MIC,"[27]; ATCC4698, 1×10^6 cells/ml",0.1 µg/mL
same,MIC,"[27]; ATCC4698, 1×10^8 cells/ml",0.2 µg/mL
same,Minimum Inhibitory Concentration,[28]; 1×10^6 cells/ml,0.10 µg/mL
same,MIC,"[28]; Bacillus cereus, IFO3001, 1×10^8 cells/ml",0.1 µg/mL
same,Minimum Inhibitory Concentration,[29]; 1×10^6 cells/ml,0.05 µg/mL
same,MIC,"[29]; Staphylococcus epidermidis, ATCC12228, 1×10^8 cells/ml",0.05 µg/mL
same,MIC,"[30]; ATCC10145, 1×10^6 cells/ml",3.13 µg/mL
same,MIC,"[30]; ATCC10145, 1×10^8 cells/ml",3.13 µg/mL
same,Minimum Inhibitory Concentration,[31]; 1×10^6 cells/ml,0.024 µg/mL
same,MIC,"[31]; Bacillus pumilus, IFO3813, 1×10^8 cells/ml",0.024 µg/mL
